ChEMBL document CHEMBL4507268 (2021)

Tests used:
[1] = molecular target: T1, Mitogen-activated protein kinase kinase kinase 5 (Homo sapiens) (UniProt Q99683); details: Compound concentration 1000.0 nM
T1 sequence (whole entry): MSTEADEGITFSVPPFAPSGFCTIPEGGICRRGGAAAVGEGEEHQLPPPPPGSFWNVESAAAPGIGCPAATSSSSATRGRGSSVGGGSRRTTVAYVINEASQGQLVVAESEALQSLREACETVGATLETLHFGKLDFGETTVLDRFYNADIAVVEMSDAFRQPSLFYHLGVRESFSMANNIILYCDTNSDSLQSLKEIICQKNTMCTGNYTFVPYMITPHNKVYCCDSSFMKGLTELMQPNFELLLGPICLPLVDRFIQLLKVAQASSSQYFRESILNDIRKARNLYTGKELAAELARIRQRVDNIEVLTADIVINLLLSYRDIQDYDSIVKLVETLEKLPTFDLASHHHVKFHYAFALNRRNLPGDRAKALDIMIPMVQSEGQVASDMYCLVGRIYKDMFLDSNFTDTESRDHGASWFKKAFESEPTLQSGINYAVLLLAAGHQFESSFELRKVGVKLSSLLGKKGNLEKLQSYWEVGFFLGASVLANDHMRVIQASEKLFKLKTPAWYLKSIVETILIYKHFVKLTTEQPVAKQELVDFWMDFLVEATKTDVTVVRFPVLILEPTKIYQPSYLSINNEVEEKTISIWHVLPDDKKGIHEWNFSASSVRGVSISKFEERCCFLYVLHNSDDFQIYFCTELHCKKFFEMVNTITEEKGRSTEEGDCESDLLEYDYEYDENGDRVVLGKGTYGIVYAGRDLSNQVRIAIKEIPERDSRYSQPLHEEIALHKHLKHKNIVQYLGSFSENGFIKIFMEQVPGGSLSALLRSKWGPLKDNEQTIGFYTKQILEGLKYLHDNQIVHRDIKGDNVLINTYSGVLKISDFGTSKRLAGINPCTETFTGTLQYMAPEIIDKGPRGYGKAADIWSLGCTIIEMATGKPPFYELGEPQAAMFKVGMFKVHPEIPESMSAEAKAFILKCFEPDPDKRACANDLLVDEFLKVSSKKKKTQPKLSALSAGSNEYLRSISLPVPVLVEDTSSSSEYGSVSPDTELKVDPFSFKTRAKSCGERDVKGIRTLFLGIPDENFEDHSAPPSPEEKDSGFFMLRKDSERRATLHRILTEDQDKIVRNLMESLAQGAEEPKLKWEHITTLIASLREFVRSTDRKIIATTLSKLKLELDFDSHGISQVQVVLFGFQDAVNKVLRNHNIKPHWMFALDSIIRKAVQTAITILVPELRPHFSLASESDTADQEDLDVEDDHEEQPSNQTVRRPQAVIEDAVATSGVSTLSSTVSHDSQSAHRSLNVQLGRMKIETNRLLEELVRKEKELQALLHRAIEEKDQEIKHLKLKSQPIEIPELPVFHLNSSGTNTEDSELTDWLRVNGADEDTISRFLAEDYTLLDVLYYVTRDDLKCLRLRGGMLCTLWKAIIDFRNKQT

[2] = molecular target: Calcium/calmodulin-dependent protein kinase type 1G (Homo sapiens) (UniProt Q96NX5); details: Compound concentration 1000.0 nM
[3] = molecular target: Cyclin-dependent kinase-like 1 (Homo sapiens) (UniProt Q00532); details: Compound concentration 1000.0 nM
[4] = molecular target: T2, Inhibitor of nuclear factor kappa-B kinase subunit epsilon (Homo sapiens) (UniProt Q14164); details: Compound concentration 1000.0 nM
T2 sequence (whole entry): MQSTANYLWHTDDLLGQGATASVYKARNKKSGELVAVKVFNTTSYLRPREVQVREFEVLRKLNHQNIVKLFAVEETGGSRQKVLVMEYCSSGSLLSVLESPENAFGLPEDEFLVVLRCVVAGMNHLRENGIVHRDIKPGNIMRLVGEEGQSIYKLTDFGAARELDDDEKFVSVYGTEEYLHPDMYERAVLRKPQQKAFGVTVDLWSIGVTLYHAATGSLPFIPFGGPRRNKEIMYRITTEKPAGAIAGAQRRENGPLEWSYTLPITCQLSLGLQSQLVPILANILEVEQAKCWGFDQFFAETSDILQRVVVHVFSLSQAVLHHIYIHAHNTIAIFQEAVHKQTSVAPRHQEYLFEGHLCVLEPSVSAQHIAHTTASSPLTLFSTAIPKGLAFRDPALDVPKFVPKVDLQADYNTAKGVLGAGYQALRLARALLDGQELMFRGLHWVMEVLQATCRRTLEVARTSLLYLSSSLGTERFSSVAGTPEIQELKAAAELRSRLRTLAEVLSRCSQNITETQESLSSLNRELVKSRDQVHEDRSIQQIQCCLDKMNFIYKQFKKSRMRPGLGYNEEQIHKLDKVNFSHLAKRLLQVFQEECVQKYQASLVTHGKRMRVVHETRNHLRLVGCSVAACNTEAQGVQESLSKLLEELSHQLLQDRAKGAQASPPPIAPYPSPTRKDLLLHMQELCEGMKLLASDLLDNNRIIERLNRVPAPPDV

[5] = molecular target: Mitogen-activated protein kinase 8 (Homo sapiens) (UniProt P45983); details: Compound concentration 1000.0 nM
[6] = molecular target: T3, Dual specificity mitogen-activated protein kinase kinase 7 (Homo sapiens) (UniProt O14733); details: Compound concentration 1000.0 nM
T3 sequence (whole entry): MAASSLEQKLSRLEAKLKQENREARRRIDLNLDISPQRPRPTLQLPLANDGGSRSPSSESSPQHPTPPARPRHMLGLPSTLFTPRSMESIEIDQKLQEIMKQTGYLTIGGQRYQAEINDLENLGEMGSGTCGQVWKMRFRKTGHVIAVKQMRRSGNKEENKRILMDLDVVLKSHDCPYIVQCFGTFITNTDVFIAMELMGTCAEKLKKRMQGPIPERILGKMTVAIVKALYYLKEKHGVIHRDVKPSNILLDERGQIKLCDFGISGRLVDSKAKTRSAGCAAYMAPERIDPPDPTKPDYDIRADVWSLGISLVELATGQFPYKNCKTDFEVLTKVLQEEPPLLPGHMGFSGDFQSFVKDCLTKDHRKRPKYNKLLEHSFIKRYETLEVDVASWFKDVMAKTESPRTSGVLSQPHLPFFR

[7] = molecular target: Phosphorylase b kinase gamma catalytic chain, skeletal muscle/heart isoform (Homo sapiens) (UniProt Q16816); details: Compound concentration 1000.0 nM
[8] = test system: Phosphatidylinositol 4,5-bisphosphate 3-kinase catalytic subunit alpha isoform (Homo sapiens), P42336 [E545A]; details: Compound concentration 1000.0 nM
[9] = molecular target: Phosphatidylinositol 4,5-bisphosphate 3-kinase catalytic subunit beta isoform (Homo sapiens) (UniProt P42338); details: Compound concentration 1000.0 nM
[10] = molecular target: Phosphatidylinositol 3-kinase catalytic subunit type 3 (Homo sapiens) (UniProt Q8NEB9); details: Compound concentration 1000.0 nM
[11] = molecular target: Histamine H2 receptor (Homo sapiens) (UniProt P25021); details: Compound concentration 10.0 uM
Sequence of Histamine H2 receptor (Homo sapiens) (P25021 whole entry): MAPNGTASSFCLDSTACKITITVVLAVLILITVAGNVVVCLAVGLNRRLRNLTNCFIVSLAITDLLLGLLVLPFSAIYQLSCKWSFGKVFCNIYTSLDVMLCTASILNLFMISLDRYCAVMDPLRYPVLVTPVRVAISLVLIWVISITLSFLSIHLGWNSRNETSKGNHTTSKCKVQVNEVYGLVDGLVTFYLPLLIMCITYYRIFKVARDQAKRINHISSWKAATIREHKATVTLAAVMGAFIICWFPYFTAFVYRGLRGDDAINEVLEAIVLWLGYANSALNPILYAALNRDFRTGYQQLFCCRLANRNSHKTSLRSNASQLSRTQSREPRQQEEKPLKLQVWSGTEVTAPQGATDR

Sequence of Phosphatidylinositol 3-kinase catalytic subunit type 3 (Homo sapiens) (Q8NEB9 whole entry): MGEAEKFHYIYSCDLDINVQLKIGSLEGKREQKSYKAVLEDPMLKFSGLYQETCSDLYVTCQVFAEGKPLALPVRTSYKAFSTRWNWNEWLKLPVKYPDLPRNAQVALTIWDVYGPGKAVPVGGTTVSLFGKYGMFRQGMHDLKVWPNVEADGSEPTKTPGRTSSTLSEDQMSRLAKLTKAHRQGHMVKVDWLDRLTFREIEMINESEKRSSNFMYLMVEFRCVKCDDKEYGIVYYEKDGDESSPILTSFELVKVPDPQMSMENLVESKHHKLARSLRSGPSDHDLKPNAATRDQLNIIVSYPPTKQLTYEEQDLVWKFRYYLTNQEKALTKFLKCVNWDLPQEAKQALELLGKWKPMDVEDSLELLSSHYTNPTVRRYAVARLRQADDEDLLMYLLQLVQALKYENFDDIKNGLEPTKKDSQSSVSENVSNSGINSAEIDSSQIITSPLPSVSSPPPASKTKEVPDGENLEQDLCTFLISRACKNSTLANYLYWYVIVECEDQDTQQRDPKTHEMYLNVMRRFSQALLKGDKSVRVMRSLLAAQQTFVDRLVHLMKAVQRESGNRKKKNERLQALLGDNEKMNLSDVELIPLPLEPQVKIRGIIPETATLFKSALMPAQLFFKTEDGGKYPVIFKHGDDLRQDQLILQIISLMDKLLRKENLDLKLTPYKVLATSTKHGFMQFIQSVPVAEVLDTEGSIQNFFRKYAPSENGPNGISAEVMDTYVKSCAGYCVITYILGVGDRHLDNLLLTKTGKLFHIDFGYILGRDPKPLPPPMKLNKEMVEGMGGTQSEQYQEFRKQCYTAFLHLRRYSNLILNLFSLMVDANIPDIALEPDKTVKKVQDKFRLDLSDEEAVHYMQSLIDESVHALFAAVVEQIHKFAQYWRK
Sequence of Cyclin-dependent kinase-like 1 (Homo sapiens) (Q00532 whole entry): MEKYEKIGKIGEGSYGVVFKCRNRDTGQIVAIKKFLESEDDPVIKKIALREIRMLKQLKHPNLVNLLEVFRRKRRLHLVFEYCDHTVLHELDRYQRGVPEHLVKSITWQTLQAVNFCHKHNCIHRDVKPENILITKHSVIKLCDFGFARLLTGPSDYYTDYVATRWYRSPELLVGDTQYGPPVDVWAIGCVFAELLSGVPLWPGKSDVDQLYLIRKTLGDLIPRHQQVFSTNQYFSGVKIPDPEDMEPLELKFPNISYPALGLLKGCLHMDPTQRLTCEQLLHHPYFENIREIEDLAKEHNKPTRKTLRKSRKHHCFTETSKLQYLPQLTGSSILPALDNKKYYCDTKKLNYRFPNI
Sequence of Phosphorylase b kinase gamma catalytic chain, skeletal muscle/heart isoform (Homo sapiens) (Q16816 whole entry, looked up, canonical isoform): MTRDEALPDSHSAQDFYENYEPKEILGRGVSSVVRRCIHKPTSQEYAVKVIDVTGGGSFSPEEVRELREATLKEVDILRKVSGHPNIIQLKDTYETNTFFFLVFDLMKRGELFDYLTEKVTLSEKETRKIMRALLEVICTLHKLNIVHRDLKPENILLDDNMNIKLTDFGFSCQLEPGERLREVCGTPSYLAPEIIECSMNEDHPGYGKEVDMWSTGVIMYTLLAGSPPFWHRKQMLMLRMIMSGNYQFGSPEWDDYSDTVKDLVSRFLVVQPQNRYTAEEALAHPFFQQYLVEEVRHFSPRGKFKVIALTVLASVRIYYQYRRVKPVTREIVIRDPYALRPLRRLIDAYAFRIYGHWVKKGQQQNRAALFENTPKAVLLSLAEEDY
Sequence of Phosphatidylinositol 4,5-bisphosphate 3-kinase catalytic subunit beta isoform (Homo sapiens) (P42338 whole entry, looked up, canonical isoform): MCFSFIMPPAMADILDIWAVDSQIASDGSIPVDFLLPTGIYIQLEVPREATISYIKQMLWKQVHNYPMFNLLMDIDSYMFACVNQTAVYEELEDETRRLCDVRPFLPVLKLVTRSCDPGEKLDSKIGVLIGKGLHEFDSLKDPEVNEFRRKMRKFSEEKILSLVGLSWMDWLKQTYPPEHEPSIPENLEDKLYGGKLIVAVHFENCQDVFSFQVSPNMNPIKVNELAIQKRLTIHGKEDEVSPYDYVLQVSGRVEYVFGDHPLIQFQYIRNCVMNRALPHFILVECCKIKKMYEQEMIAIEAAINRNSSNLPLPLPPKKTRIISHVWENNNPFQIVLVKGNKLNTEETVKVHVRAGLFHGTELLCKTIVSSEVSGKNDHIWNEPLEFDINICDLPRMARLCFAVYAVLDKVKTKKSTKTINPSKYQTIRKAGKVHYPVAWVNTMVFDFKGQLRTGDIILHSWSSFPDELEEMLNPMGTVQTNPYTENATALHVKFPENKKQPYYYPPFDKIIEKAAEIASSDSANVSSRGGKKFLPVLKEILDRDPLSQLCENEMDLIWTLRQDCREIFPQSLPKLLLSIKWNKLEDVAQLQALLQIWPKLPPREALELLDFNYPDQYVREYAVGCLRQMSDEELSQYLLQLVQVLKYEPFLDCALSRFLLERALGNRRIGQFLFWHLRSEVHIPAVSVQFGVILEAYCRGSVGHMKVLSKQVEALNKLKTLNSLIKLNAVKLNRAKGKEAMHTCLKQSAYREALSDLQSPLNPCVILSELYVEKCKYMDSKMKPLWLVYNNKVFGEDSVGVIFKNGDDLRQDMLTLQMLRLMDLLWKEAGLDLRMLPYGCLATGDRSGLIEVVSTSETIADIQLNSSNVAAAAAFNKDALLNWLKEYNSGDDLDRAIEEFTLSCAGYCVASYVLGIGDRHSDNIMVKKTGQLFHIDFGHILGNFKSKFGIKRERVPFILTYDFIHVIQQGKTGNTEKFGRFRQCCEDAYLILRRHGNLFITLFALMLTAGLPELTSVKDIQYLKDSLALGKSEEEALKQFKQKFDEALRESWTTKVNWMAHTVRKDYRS
Sequence of Calcium/calmodulin-dependent protein kinase type 1G (Homo sapiens) (Q96NX5 whole entry): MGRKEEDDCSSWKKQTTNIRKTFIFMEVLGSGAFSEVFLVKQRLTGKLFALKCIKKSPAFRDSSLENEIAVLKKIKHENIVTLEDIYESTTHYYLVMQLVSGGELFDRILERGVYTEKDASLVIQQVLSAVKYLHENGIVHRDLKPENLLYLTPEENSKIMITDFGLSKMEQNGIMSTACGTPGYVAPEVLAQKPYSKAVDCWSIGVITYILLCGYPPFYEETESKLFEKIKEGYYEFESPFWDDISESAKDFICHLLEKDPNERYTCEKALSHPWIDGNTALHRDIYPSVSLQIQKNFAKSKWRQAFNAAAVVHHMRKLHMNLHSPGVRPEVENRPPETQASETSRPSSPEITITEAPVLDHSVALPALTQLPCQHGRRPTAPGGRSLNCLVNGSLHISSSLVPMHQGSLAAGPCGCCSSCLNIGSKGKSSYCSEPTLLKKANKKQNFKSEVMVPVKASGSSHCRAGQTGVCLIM
Sequence of Phosphatidylinositol 4,5-bisphosphate 3-kinase catalytic subunit alpha isoform (Homo sapiens), P42336 [E545A] (P42336 whole entry E545A, canonical isoform): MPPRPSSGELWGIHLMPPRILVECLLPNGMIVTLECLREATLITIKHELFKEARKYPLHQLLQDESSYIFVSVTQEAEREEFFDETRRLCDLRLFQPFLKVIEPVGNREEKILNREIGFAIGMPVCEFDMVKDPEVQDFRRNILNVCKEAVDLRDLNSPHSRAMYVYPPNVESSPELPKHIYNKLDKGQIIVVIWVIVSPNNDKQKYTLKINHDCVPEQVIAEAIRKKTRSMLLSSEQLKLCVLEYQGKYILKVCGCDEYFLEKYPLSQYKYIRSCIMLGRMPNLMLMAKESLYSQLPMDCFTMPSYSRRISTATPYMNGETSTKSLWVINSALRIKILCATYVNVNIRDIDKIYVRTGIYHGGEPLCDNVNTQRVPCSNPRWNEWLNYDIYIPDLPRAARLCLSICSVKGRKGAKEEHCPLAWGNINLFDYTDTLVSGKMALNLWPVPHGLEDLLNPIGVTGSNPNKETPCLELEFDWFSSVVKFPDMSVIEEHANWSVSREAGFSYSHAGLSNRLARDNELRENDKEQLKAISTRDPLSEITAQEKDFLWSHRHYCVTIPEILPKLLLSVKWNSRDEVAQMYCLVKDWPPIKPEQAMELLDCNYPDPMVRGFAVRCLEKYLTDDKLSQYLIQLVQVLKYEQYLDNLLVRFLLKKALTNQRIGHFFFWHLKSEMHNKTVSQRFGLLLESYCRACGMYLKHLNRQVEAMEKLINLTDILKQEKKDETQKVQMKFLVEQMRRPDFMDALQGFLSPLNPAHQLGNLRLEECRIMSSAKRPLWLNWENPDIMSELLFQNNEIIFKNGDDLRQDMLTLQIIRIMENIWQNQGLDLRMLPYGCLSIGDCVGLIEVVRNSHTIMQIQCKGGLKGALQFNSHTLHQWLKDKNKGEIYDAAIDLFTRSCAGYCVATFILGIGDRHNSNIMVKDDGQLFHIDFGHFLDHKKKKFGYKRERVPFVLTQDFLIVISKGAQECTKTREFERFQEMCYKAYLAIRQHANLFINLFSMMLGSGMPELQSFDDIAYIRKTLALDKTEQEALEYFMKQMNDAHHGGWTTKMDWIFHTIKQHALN
Sequence of Mitogen-activated protein kinase 8 (Homo sapiens) (P45983 whole entry): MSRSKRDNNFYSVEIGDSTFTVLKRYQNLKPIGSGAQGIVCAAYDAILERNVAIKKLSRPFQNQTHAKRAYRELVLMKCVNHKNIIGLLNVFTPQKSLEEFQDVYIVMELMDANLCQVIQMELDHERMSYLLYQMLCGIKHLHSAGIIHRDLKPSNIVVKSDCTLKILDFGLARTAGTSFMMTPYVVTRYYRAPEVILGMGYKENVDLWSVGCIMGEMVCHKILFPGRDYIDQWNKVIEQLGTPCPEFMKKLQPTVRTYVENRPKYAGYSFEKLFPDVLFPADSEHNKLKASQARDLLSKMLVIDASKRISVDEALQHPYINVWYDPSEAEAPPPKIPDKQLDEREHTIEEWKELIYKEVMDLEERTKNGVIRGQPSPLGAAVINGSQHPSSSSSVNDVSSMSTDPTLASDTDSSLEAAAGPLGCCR

Cc1nc(C2CCN(C(=O)c3ccc(OC(F)(F)F)cc3N)CC2)c2ncc(N3CCN(C)CC3)cc2n1 [BAY-693]
inactive: residual activity [1] 99% | residual activity [2] 100% | residual activity [3] 89% | residual activity [4] 97% | residual activity [5] 98% | residual activity [6] 86% | residual activity [7] 100% | residual activity [8] 79% | residual activity [9] 94% | residual activity [10] 95% | inhibition [11] 23.6%

CN1CCN(c2cnc3c(C4CCN(C(=O)c5ccc(OC(F)(F)F)cc5N)CC4)ncnc3c2)CC1 [BAY-885]
inactive: residual activity [1] 92% | residual activity [2] 100% | residual activity [3] 94% | residual activity [4] 98% | residual activity [5] 97% | residual activity [6] 100% | residual activity [7] 100% | residual activity [8] 89% | residual activity [9] 100% | residual activity [10] 100% | inhibition [11] 31.2%
